For assay [1], the system named is human induced pluripotent stem cells (iPS). In words: Apoptosis-specific cell phenotype observed under microscope. In kind it is cell-based. As for the experimental part:
Human induced pluripotent stem cells (iPS) derived from human aortic smooth muscle cells (HASMC) was subcultured in an ESC medium (DMEM/F/12 supplemented with a 20% KnockOutTM serum replacement, 0.1% gentamycin, 1% non-essential amino acids, 0.1% β-mercaptoethanol and 4 ng/ml bFGF) containing mouse embryonic fibroblasts (MEF) treated with mitomycin-C as supporting cells Lee, T. H., et al., (2010). Functional recapitulation of smooth muscle cells via induced pluripotent stem cells from human aortic smooth muscle cells. Circ Res 106, 120-128). For the pretreatment of quercetin and YM-155 of the present invention, iPS was cultured in a matrigel-coated 60 mm dish containing […]1 medium (29106, Stem Cell Technology) to induce them into smooth muscle cells (SMC). Human aortic smooth muscle cells (HASMC) and human induced pluripotent stem cells-derived differentiated cells, i.e., human induced pluripotent stem cells-derived smooth muscle cells (iPS-SMC) were cultured in an SMCM medium (ScienCell research laboratories, cat #1101) as described in the reference (Lee et al., 2010). In order to confirm the selective apoptosis of undifferentiated human induced pluripotent stem cells by quercetin, human induced pluripotent stem cells (iPS) derived from human aortic smooth muscle cells (HASMC), HASMC, smooth muscle cell no. 1 differentiated-derived from iPS (iPS-SMC-1), and smooth muscle cell no. […]

The test system is the same in assay [2]. In words: Immunoblotting of apoptosis marker proteins in cell lysate. In kind it is cell-based. As to conditions: 50 μM quercetin, 24 hours. An excerpt:
The antibodies used in the immunoblotting assay and anti-PARP1 (SC-7150) and anti-β-actin (SC-47778) were purchased from Santa Cruz Biotech Inc. (CA, USA). Additionally, anti-caspase-9 (Cat#9502) and anti-cleaved caspase-3 (Cat#9661) purchased from Cell Signaling Technology (Danvers, Mass., USA). In order to confirm the selective apoptosis of undifferentiated human induced pluripotent stem cells by quercetin, human induced pluripotent stem cells (iPS) derived from human aortic smooth muscle cells (HASMC), HASMC, smooth muscle cell no. 1 differentiated-derived from iPS (iPS-SMC-1), and smooth muscle cell no.
In general terms: Immunoblotting shows a protein as a band on a membrane.

For assay [3], the system named is HASMC and iPS-SMC3. In words: α-SMA expression by immunofluorescence. The assay is classed as cell-based, human. As to conditions: 50 μM quercetin, 24 hours. The procedure:
Human aortic smooth muscle cells (HASMC) and human induced pluripotent stem cells-derived differentiated cells, i.e., human induced pluripotent stem cells-derived smooth muscle cells (iPS-SMC) were cultured in an SMCM medium (ScienCell research laboratories, cat #1101) as described in the reference (Lee et al., 2010). As the first antibody used in IFA was anti-α-smooth muscle actin (α-SMA) (Dako Inc, Carpinteria, Calif.). Images were obtained using Axioscope A1 microscope (Carl Zeiss) and analyzed.

Assay [4] deals with iPS-SMC1 and iPS-SMC3. In words: Measurement of intracellular calcium (Fura-2) after ATP or 75 mM K+. As to conditions: 50 μM quercetin, 24 hours, then ATP or 75 mM potassium solution. The assay is classed as cell-based, human. As for the experimental part:
In order to confirm the functions of the differentiated cells which were completely differentiated into smooth muscle cells, an intracellular calcium reaction was used. As described in the reference article (Lee et al., 2006), intracellular or extracellular calcium transients were induced using pharmacological reagents, ATP or 75 mM K^+ solution, and the values were numerized in fluorescence using a calcium indicator Fura-2 (Molecular Probes, Eugene, Oreg.), and imaged.
(In general: A change in cytosolic calcium serves as a functional read-out for many receptors and channels.)

Assay [5] relates to mixed cell population of human induced pluripotent stem cells-smooth muscle cells. Nature of the assay: Cleaved caspase-3 immunostaining in 1:1 mixed iPS / iPS-derived smooth muscle cell culture. As to conditions: 50 μM quercetin, 24 hours; 1:1 mixture of iPS and iPS-derived SMC. The assay is classed as cell-based. The procedure:
The scale bar denotes 100 μm. […] In order to confirm the functions of smooth muscle cells differentiated-derived from human induced pluripotent stem cells, the population, which was cultured by mixing human induced pluripotent stem cells and the smooth muscle cells differentiated-derived from the human induced pluripotent stem cells in a 1:1 ratio, was treated with 50 μM quercetin for 24 hours, and examined the cleavage type caspase-3 positive population in the population of SMA-positive population or SSEA-4-positive population.

Assay [6] has as its system undifferentiated induced pluripotent stem cells. In words: Selective cell death of undifferentiated induced pluripotent stem cells (summary statement). As to conditions: treatment of induced pluripotent stem cells; differentiated cells not affected. In kind it is cell-based, human. The source says: The present inventors have made intensive efforts to develop a method for obtaining pure differentiated cells from induced pluripotent stem cells, and in particular, a method for obtaining only the pure differentiated cells by removing the possibility of a tumor formation by the undifferentiated induced pluripotent stem cells causing teratoma formation.

1 compound from US9657273B2, “Method for suppressing teratoma formation via selective cell death induction in undifferentiated human-induced pluripotent stem cells” (Industry-University Cooperation Foundation Sogang University, priority 2012, dated 2017) can be followed below.

Structures are written as SMILES. Entries after “also recorded” stand apart in the source; their conditions may differ.

Take `O=c1c(O)c(-c2ccc(O)c(O)c2)oc2cc(O)cc(O)c12` [quercetin, 2-(3,4-dihydroxyphenyl)-3,5,7-trihydroxy-4H-chromen-4-one]: the “apoptosis-specific phenotypic cell type” value in assay [1] (50 μM quercetin, 24 hours, iPS vs HASMC, iPS-SMC-1, iPS-SMC-3) was “exhibited a distinct apoptosis-specific cell phenotype; also recorded: distinctive apoptosis-specific phenotypic cell type was discovered”. For the same compound, in assay [1] (various concentrations of quercetin (QC), iPS), the “degree of apoptosis (apoptosis-specific phenotypic cell type) at various concentrations” value is on record as “concentration-dependent”. In addition, the “apoptosis marker proteins: cleavage of Parp-1, cleaved caspase-3 and caspase-9” value in assay [2] is “exhibited the expression of Parp-1 cleavage (T type), cleavage types of caspase-3 and caspase-9”. For the same compound, the “expression of α-SMA (immunofluorescence)” value in assay [3] is recorded as “the expression of α-SMA was confirmed”. For the same compound, in assay [4], the “intracellular calcium response (function as smooth muscle cells)” value was “confirmed the functions as smooth muscle cells”. The “cleavage type caspase-3 positive population in SSEA-4-positive vs SMA-positive population” value in assay [5] was “excellent cleavage type caspase-3 positive population within the SSEA-4 positive population”. Further, the “selective killing of undifferentiated induced pluripotent stem cells” value in assay [6] was “only the undifferentiated induced pluripotent stem cells were effectively and selectively killed”.
